Source: ChEMBL document CHEMBL3045780, “EGFR tyrosine kinase targeted compounds: synthesis, docking study, and in vitro antitumor activity of some new quinazoline and benzo[d]isothiazole derivatives” (Med Chem Res, 2011)
≈ marks a conversion by molar mass, not a printed value.

What follows are compounds tested on MCF7 (assay: Cytotoxicity against Homo sapiens (human) MCF7 cells after 48 hr by SRB assay). Details: MCF7, 48 h.
Assay type: functional, cell-based

**Q.** With `N=C(N)NS(=O)(=O)c1ccc(NNC2=NS(=O)(=O)c3ccccc32)cc1` as the compound, how does the IC50 read?
**A.** Its IC50 is 4.35 µg/mL (≈ 11 µM).

**Q.** With `N=C(N)NS(=O)(=O)c1ccc(NNc2ncnc3ccccc23)cc1` as the compound, how does the IC50 read?
**A.** Its IC50 is 1.65 µg/mL (≈ 4.62 µM).

**Q.** `NS(=O)(=O)c1ccc(Nc2ncnc3ccccc23)cc1` was tested. Which IC50 did it give?
**A.** The IC50 was 2.4 µg/mL (≈ 7.99 µM).

**Q.** Which IC50 does the source give for `Cc1ccc(S(=O)(=O)NC(=O)N2C(=O)c3ccccc3S2(=O)=O)cc1` here?
**A.** The IC50 was 5.65 µg/mL (≈ 14.9 µM).

**Q.** With `O=C(NS(=O)(=O)c1ccc(Cl)cc1)N1C(=O)c2ccccc2S1(=O)=O` as the compound, how does the IC50 read?
**A.** Its IC50 is 6.03 µg/mL (≈ 15 µM).

**Q.** How did the IC50 turn out when `O=S1(=O)N=C(NCCNC2=NS(=O)(=O)c3ccccc32)c2ccccc21` was run?
**A.** Its IC50 is 3.69 µg/mL (≈ 9.45 µM).

**Q.** With `O=C(NS(=O)(=O)c1ccc(Cl)cc1)n1cnc2ccccc2c1=O` as the compound, how does the IC50 read?
**A.** The IC50 was 3.74 µg/mL (≈ 10.3 µM).

**Q.** For `O=S1(=O)N=C(Nc2cccc(NC3=NS(=O)(=O)c4ccccc43)c2)c2ccccc21`, which IC50 is on record?
**A.** Its IC50 is 3.14 µg/mL (≈ 7.16 µM).

**Q.** For `Cc1ccc(S(=O)(=O)NC(=O)n2cnc3ccccc3c2=O)cc1`, which IC50 is on record?
**A.** Its IC50 is 3.96 µg/mL (≈ 11.5 µM).

**Q.** With `O=S1(=O)N=C(Nc2nnc(-c3ccccc3)s2)c2ccccc21` as the compound, how does the IC50 read?
**A.** Its IC50 is 2.92 µg/mL (≈ 8.53 µM).

**Q.** Which IC50 does the source give for `NS(=O)(=O)c1ccc(NC2=NS(=O)(=O)c3ccccc32)cc1` here?
**A.** Its IC50 is 4.17 µg/mL (≈ 12.4 µM).

**Q.** `c1cc(Nc2ncnc3ccccc23)cc(Nc2ncnc3ccccc23)c1` was tested. Which IC50 did it give?
**A.** The IC50 was 2.04 µg/mL (≈ 5.6 µM).

**Q.** Which IC50 does the source give for `N=C(N)NS(=O)(=O)c1ccc(NC2=NS(=O)(=O)c3ccccc32)cc1` here?
**A.** Its IC50 is 4.3 µg/mL (≈ 11.3 µM).

**Q.** With `Clc1ccc(-c2nnc(Nc3ncnc4ccccc34)s2)cc1` as the compound, how does the IC50 read?
**A.** Its IC50 is 2.04 µg/mL (≈ 6 µM).

**Q.** Which IC50 does the source give for `NS(=O)(=O)c1ccc(NNC2=NS(=O)(=O)c3ccccc32)cc1` here?
**A.** The IC50 was 3.73 µg/mL (≈ 10.6 µM).

**Q.** `c1ccc2c(Nc3ccc(Nc4ncnc5ccccc45)cc3)ncnc2c1` was tested. Which IC50 did it give?
**A.** Its IC50 is 0.06 µg/mL (≈ 0.165 µM).

**Q.** How did the IC50 turn out when `c1ccc2c(NCCNc3ncnc4ccccc34)ncnc2c1` was run?
**A.** Its IC50 is 2.04 µg/mL (≈ 6.45 µM).

**Q.** How did the IC50 turn out when `N=C(N)NS(=O)(=O)c1ccc(Nc2ncnc3ccccc23)cc1` was run?
**A.** Its IC50 is 1.85 µg/mL (≈ 5.4 µM).

**Q.** Which IC50 does the source give for `c1ccc(-c2nnc(Nc3ncnc4ccccc34)s2)cc1` here?
**A.** The IC50 was 3.61 µg/mL (≈ 11.8 µM).

**Q.** `O=S1(=O)N=C(Nc2ccc(NC3=NS(=O)(=O)c4ccccc43)cc2)c2ccccc21` was tested. Which IC50 did it give?
**A.** The IC50 was 2.76 µg/mL (≈ 6.29 µM).

**Q.** Which IC50 does the source give for `O=S1(=O)N=C(Nc2nnc(-c3ccc(Cl)cc3)s2)c2ccccc21` here?
**A.** Its IC50 is 2.92 µg/mL (≈ 7.75 µM).

**Q.** With `NS(=O)(=O)c1ccc(NNc2ncnc3ccccc23)cc1` as the compound, how does the IC50 read?
**A.** Its IC50 is 1.13 µg/mL (≈ 3.58 µM).
